Measured values as given in patent US5384412A, “Saccharide intermediates in the formation of the calicheamicin and esperamicin oligosaccharides” (priority 1992, dated 1995).
Read-outs that look alike come from different tables or passages of the source.

What was measured:
[1] = system: 93 base-pair Sal I - Sph I double-stranded DNA fragment of pBR322; assay: DNase I footprinting of oligosaccharides on labeled DNA fragment; type: binding; details: for DNA binding selectivity from footprinting: footprinting studies, O-methyl glycoside; for protection against DNase I cleavage (footprinting): pre-incubated with DNA at 37° C. for 30 minutes, autoradiography
Description: Footprinting studies the O-methyl glycosides of saccharide Compounds 167a, 100, its C-4 epimer (100a) and a similar compound lacking the iodo group in Ring C, 100b, shown below, were designed to probe these questions.
The oligosaccharides 167a, 100, 100a, and 100b were obtained by chemical synthesis following procedures similar to those discussed before. The 93 base-pair Sal I - Sph I double-stranded DNA fragment of pBR322 was obtained enzymatically and was [5'-^32 P]-labeled on one strand. pBR322 DNA was cleaved at the unique Sal I site, dephosphorylated using calf intestine phosphatase, 5'-^32 P]-phosphorylated using T4 polynucleotide kinase and [g-^32 P ATP (4.5 ^m Ci/pmol), and cleaved again at the unique Sph I site. These precursors generated a 93 base-pair double-stranded fragment, [5'-^32 P]-labeled at the Sal I end, which was purified by gel electrophoresis in a nondenaturing 10 percent polyacrylamide gel and subsequent column chromatography on Sephadex G-25. The oligosaccharides were pre-incubated with the DNA fragment at 37° C. for 30 minutes and DNase I was added to cleave the DNA and generate footprinting patterns by autoradiography.
The degree of protection against DNase I digestion offered by both the natural and unnatural stereoisomers was determined by comparing the amount of radioactivity in adjacent lanes along the electrophoresis gel. The protected regions coincided only roughly with calicheamicin γ1^I recognition sequences [(a) Zein et al., Science, 240:1198 (1988); (b) Zein et al., Science, 244:697 (1989); (c) Ding et al., J. Am. Chem. Soc., 113:6617 (1991)], Schreiber [Hawley et al., Proc. Natl. Acad. Sci. U.S.A., 86:1105 (1989)] and observed calicheamicin γ1^I cleavage sites.

duplex DNA = details: cited from earlier work
DNA = details: Zein et al., Science, 244:697 (1989), cited from earlier work

Row | Compound | protection against DNase I cleavage (footprinting) [1] | sequence specificity of DNA cleaving (DNA) | other results
1 | CCN[C@H]1CO[C@@H](O[C@H]2[C@H](OC)O[C@H](C)[C@@H](NO[C@H]3C[C@H](O)[C@H](SC(=O)c4c(C)c(I)c(O[C@@H]5O[C@@H](C)[C@H](O)[C@@H](OC)[C@H]5O)c(OC)c4OC)[C@@H](C)O3)[C@@H]2O)C[C@@H]1OC [Compound 100] | concentration-dependent protection, presumably due to binding, in the region of three calicheamicin γ1^I binding sites: CTCT, TCCT and AGGA | – | DNA binding selectivity from footprinting [1]: selective binding of oligosaccharide Compound 100 with specific base sequences of DNA; DNA binding selectivity from footprinting ([1]; listed as calicheamicin oligosaccharide glycoside): binds specifically to DNA, the preferred saccharide binding sites do not coincide precisely with those observed for intact calicheamicin; interaction with duplex DNA (duplex DNA; previous studies by the Ellestad, Schreiber, Kahne and Danishefsky groups): selective interactions of the calicheamicin γ1^I oligosaccharide with duplex DNA along specific sequences within the minor groove
2 | CCN[C@H]1CO[C@@H](O[C@H]2[C@H](OC)O[C@H](C)[C@@H](NO[C@H]3C[C@H](O)[C@H](SC(=O)c4c(C)cc(O[C@@H]5O[C@@H](C)[C@H](O)[C@@H](OC)[C@H]5O)c(OC)c4OC)[C@@H](C)O3)[C@@H]2O)C[C@@H]1OC [Compound 100b] | lack of protection under the same conditions | – | –
3 | CCN[C@H]1CO[C@@H](O[C@H]2[C@H](OC)O[C@H](C)[C@H](NO[C@H]3C[C@H](O)[C@H](SC(=O)c4c(C)c(I)c(O[C@@H]5O[C@@H](C)[C@H](O)[C@@H](OC)[C@H]5O)c(OC)c4OC)[C@@H](C)O3)[C@@H]2O)C[C@@H]1OC [Compound 100a] | no protection at the same concentrations | – | –
4 | CCN[C@H]1CO[C@@H](O[C@H]2[C@H](O[C@H]3C#CC=CC#C[C@@]4(O)CC(=O)C(NC(=O)OC)=C3/C4=C\CSSSC)O[C@H](C)[C@@H](NO[C@H]3C[C@H](O)[C@H](SC(=O)c4c(C)c(I)c(O[C@@H]5O[C@@H](C)[C@H](O)[C@@H](OC)[C@H]5O)c(OC)c4OC)[C@@H](C)O3)[C@@H]2O)C[C@@H]1OC (stereo in doubt) [calicheamicin γ1^I, reference compound] | – | double DNA strand cuts at specific sequences | DNA binding site (duplex DNA; double stranded DNA minor groove): anchors itself on the 5' side of a TCCT sequence
5 | esperamicin | – | no strong sequence specificity in DNA cleaving | sequence specificity of DNA cleaving (DNA; listed as Esperamicins): less sequence specific
